How the values were obtained:
Type in all cases: in vivo
[1] = test system: Stellaria media; experiment: Example 2: alcohol ethoxylate adjuvants without glyphosate, visual % damage, tracksprayer 300 l/ha
From the text: (§1) The effect of different types of alcohol ethoxylate (branched—Genapol X-series, and unbranched—Genapol O-series, differing degrees of ethoxylation, see Table 3 below for more details), on unwanted vegetation (broadleaf weed and grass species), in the absence of glyphosate, was investigated and compared to untreated (water only) control weeds.
(§2) Troughs (measuring 16 cm by 13 cm by 5 cm) were filled with local field soil. Seeds of Veronica persica, Stellaria media, Trifolium repens and Poa annua were sown 24 days before application of test samples. Plants were grown in the glasshouse at 18 to 20° C. and 60% relative humidity. Application of alcohol ethoxylate test samples was carried out using a tracksprayer, spraying at a rate of 300 l/ha. Plants were kept in glasshouse and visual assessment of the estimated percentage damage to the plant was carried out 1, 7, and 14 days from application.
(§3) Damage was assessed as wilting, desiccation or any other kind of visual injury in comparison to the untreated control (water only).

[2] = test system: Trifolium repens; experiment: as above
From the text: as §1, §2, §3

[3] = test system: Veronica persica; experiment: as above
From the text: as §1, §2, §3

[4] = test system: Poa annua; experiment: as above
From the text: as §1, §2, §3

[5] = test system: Stellaria media; experiment: Example 1: adjuvants alone, visual % damage, pots in glasshouse
Description: (§4) The effect of different adjuvants (see Table 1 below) on the growth of broadleaf weed and grass species was investigated and compared to untreated (water only) control weeds.
(§5) Plates, each with 48 pots measuring 2.7 cm diameter and 5 cm deep, were filled with TKS1 growing media (Floragard, Germany). Seeds of Taraxacum officinale, Stellaria media or Poa annua were sown on the surface (10 to 20 per pot). Plants were grown in glasshouse at a temperature of 18 to 20° C. and at 60% relative humidity.
(§6) Plants were treated 15 (Stellaria, Poa) and 34 (Taraxacum) days after sowing with 60 μl of a 1.25, 2.5, 5 and 10% (w/v) solution of adjuvant using a hand airbrush.
(§7) Visual assessment of the percentage damage to the plant was carried out 1 day and 6 days from application.
as §3

[6] = test system: Taraxacum officinale; experiment: as above
Description: as §4, §5, §6, §7, §3

[7] = test system: Poa annua; experiment: as above
Description: as §4, §5, §6, §7, §3

[8] = test system: broadleaf weeds and grasses; experiment: Example 1: overall statement on adjuvants alone; details: 1 and 6 days after treatment, adjuvant alone
Description: as §4, §5, §6, §7, §3

For “Oleyl alcohol polyglycol ether with 5 moles of ethoxylation [GenapolO050]”, the “mean % damage 1 daa Stellaria media” value ([1]; adjuvant 1% w/v) was 0%, the “mean % damage 7 daa Stellaria media” value ([1]; adjuvant 1% w/v) was 5% and the “mean % damage 14 daa Stellaria media” value ([1]; adjuvant 1% w/v) was 0%. The “mean % damage 1 daa Stellaria media” value ([1]; adjuvant 1.5% w/v) was 0%, the “mean % damage 7 daa Stellaria media” value ([1]; adjuvant 1.5% w/v) was 5% and the “mean % damage 14 daa Stellaria media” value ([1]; adjuvant 1.5% w/v) was 5%. For the same substance, the “mean % damage 1 daa Stellaria media” value ([1]; adjuvant 2% w/v) was 0%, the “mean % damage 7 daa Stellaria media” value ([1]; adjuvant 2% w/v) was 10% and the “mean % damage 14 daa Stellaria media” value ([1]; adjuvant 2% w/v) was 5%. For the same substance, the “mean % damage 1 daa Stellaria media” value ([1]; adjuvant 2.5% w/v) was 0%, the “mean % damage 7 daa Stellaria media” value ([1]; adjuvant 2.5% w/v) was 10% and the “mean % damage 14 daa Stellaria media” value ([1]; adjuvant 2.5% w/v) was 10%. The “mean % damage 1 daa Trifolium repens” value ([2]; adjuvant 1% w/v) was 0%, the “mean % damage 7 daa Trifolium repens” value ([2]; adjuvant 1% w/v) was 5% and the “mean % damage 14 daa Trifolium repens” value ([2]; adjuvant 1% w/v) was 0%. The “mean % damage 1 daa Trifolium repens” value ([2]; adjuvant 1.5% w/v) was 0%, the “mean % damage 7 daa Trifolium repens” value ([2]; adjuvant 1.5% w/v) was 5% and the “mean % damage 14 daa Trifolium repens” value ([2]; adjuvant 1.5% w/v) was 0%. The “mean % damage 1 daa Trifolium repens” value ([2]; adjuvant 2% w/v) was 0%, the “mean % damage 7 daa Trifolium repens” value ([2]; adjuvant 2% w/v) was 5% and the “mean % damage 14 daa Trifolium repens” value ([2]; adjuvant 2% w/v) was 0%. For the same substance, the “mean % damage 1 daa Trifolium repens” value ([2]; adjuvant 2.5% w/v) was 0%, the “mean % damage 7 daa Trifolium repens” value ([2]; adjuvant 2.5% w/v) was 5% and the “mean % damage 14 daa Trifolium repens” value ([2]; adjuvant 2.5% w/v) was 0%. The “mean % damage 1 daa Veronica persica” value ([3]; adjuvant 1% w/v) was 0%, the “mean % damage 7 daa Veronica persica” value ([3]; adjuvant 1% w/v) was 5% and the “mean % damage 14 daa Veronica persica” value ([3]; adjuvant 1% w/v) was 5%. For the same substance, the “mean % damage 1 daa Veronica persica” value ([3]; adjuvant 1.5% w/v) was 0%, the “mean % damage 7 daa Veronica persica” value ([3]; adjuvant 1.5% w/v) was 10% and the “mean % damage 14 daa Veronica persica” value ([3]; adjuvant 1.5% w/v) was 20%. The “mean % damage 1 daa Veronica persica” value ([3]; adjuvant 2% w/v) was 0%, the “mean % damage 7 daa Veronica persica” value ([3]; adjuvant 2% w/v) was 10% and the “mean % damage 14 daa Veronica persica” value ([3]; adjuvant 2% w/v) was 20%. For the same substance, the “mean % damage 1 daa Veronica persica” value ([3]; adjuvant 2.5% w/v) was 0%, the “mean % damage 7 daa Veronica persica” value ([3]; adjuvant 2.5% w/v) was 20% and the “mean % damage 14 daa Veronica persica” value ([3]; adjuvant 2.5% w/v) was 20%. For the same substance, the “mean % damage 1 daa Poa annua” value ([4]; adjuvant 1% w/v) was 0%, the “mean % damage 7 daa Poa annua” value ([4]; adjuvant 1% w/v) was 10% and the “mean % damage 14 daa Poa annua” value ([4]; adjuvant 1% w/v) was 0%. The “mean % damage 1 daa Poa annua” value ([4]; adjuvant 1.5% w/v) was 0%, the “mean % damage 7 daa Poa annua” value ([4]; adjuvant 1.5% w/v) was 5% and the “mean % damage 14 daa Poa annua” value ([4]; adjuvant 1.5% w/v) was 0%. For the same substance, the “mean % damage 1 daa Poa annua” value ([4]; adjuvant 2% w/v) was 0%, the “mean % damage 7 daa Poa annua” value ([4]; adjuvant 2% w/v) was 5% and the “mean % damage 14 daa Poa annua” value ([4]; adjuvant 2% w/v) was 5%. The “mean % damage 1 daa Poa annua” value ([4]; adjuvant 2.5% w/v) was 0%, the “mean % damage 7 daa Poa annua” value ([4]; adjuvant 2.5% w/v) was 5% and the “mean % damage 14 daa Poa annua” value ([4]; adjuvant 2.5% w/v) was 5%. For the same substance, the “avg % damage 1 DAA Stellaria media” value ([5]; adjuvant 1.25% w/v) was 0%, the “avg % damage 6 DAA Stellaria media” value ([5]; adjuvant 1.25% w/v) was 0% and the “avg % damage 1 DAA Stellaria media” value ([5]; adjuvant 2.5% w/v) was 10%. The “avg % damage 6 DAA Stellaria media” value ([5]; adjuvant 2.5% w/v) was 15%, the “avg % damage 1 DAA Stellaria media” value ([5]; adjuvant 5% w/v) was 15% and the “avg % damage 6 DAA Stellaria media” value ([5]; adjuvant 5% w/v) was 25%. The “avg % damage 1 DAA Stellaria media” value ([5]; adjuvant 10% w/v) was 30%, the “avg % damage 6 DAA Stellaria media” value ([5]; adjuvant 10% w/v) was 25% and the “avg % damage 1 DAA Taraxacum officinale” value ([6]; adjuvant 1.25% w/v) was 10%. The “avg % damage 6 DAA Taraxacum officinale” value ([6]; adjuvant 1.25% w/v) was 0%, the “avg % damage 1 DAA Taraxacum officinale” value ([6]; adjuvant 2.5% w/v) was 10% and the “avg % damage 6 DAA Taraxacum officinale” value ([6]; adjuvant 2.5% w/v) was 3%. The “avg % damage 1 DAA Taraxacum officinale” value ([6]; adjuvant 5% w/v) was 10%, the “avg % damage 6 DAA Taraxacum officinale” value ([6]; adjuvant 5% w/v) was 20% and the “avg % damage 1 DAA Taraxacum officinale” value ([6]; adjuvant 10% w/v) was 10%. The “avg % damage 6 DAA Taraxacum officinale” value ([6]; adjuvant 10% w/v) was 0%, the “avg % damage 1 DAA Poa annua” value ([7]; adjuvant 1.25% w/v) was 0% and the “avg % damage 6 DAA Poa annua” value ([7]; adjuvant 1.25% w/v) was 5%. For the same substance, the “avg % damage 1 DAA Poa annua” value ([7]; adjuvant 2.5% w/v) was 0%, the “avg % damage 6 DAA Poa annua” value ([7]; adjuvant 2.5% w/v) was 5% and the “avg % damage 1 DAA Poa annua” value ([7]; adjuvant 5% w/v) was 0%. For the same substance, the “avg % damage 6 DAA Poa annua” value ([7]; adjuvant 5% w/v) was 10%, the “avg % damage 1 DAA Poa annua” value ([7]; adjuvant 10% w/v) was 0% and the “avg % damage 6 DAA Poa annua” value ([7]; adjuvant 10% w/v) was 10%.

For “Iso-tridecyl alcohol polyglycol ether with 15 Moles of ethoxylation [GenapolX-150]”, the “visual symptoms of phytotoxicity” value [8] was “comparatively high level of visual symptoms of phytoxicity”, the “avg % damage 1 DAA Stellaria media” value ([5]; adjuvant 1.25% w/v) was 0% and the “avg % damage 6 DAA Stellaria media” value ([5]; adjuvant 1.25% w/v) was 10%. The “avg % damage 1 DAA Stellaria media” value ([5]; adjuvant 2.5% w/v) was 0%, the “avg % damage 6 DAA Stellaria media” value ([5]; adjuvant 2.5% w/v) was 10% and the “avg % damage 1 DAA Stellaria media” value ([5]; adjuvant 5% w/v) was 15%. The “avg % damage 6 DAA Stellaria media” value ([5]; adjuvant 5% w/v) was 15%, the “avg % damage 1 DAA Stellaria media” value ([5]; adjuvant 10% w/v) was 25% and the “avg % damage 6 DAA Stellaria media” value ([5]; adjuvant 10% w/v) was 25%. For the same substance, the “avg % damage 1 DAA Taraxacum officinale” value ([6]; adjuvant 1.25% w/v) was 10%, the “avg % damage 6 DAA Taraxacum officinale” value ([6]; adjuvant 1.25% w/v) was 5% and the “avg % damage 1 DAA Taraxacum officinale” value ([6]; adjuvant 2.5% w/v) was 10%. The “avg % damage 6 DAA Taraxacum officinale” value ([6]; adjuvant 2.5% w/v) was 0%, the “avg % damage 1 DAA Taraxacum officinale” value ([6]; adjuvant 5% w/v) was 20% and the “avg % damage 6 DAA Taraxacum officinale” value ([6]; adjuvant 5% w/v) was 10%. For the same substance, the “avg % damage 1 DAA Taraxacum officinale” value ([6]; adjuvant 10% w/v) was 10%, the “avg % damage 6 DAA Taraxacum officinale” value ([6]; adjuvant 10% w/v) was 0% and the “avg % damage 1 DAA Poa annua” value ([7]; adjuvant 1.25% w/v) was 0%. The “avg % damage 6 DAA Poa annua” value ([7]; adjuvant 1.25% w/v) was 10%, the “avg % damage 1 DAA Poa annua” value ([7]; adjuvant 2.5% w/v) was 0% and the “avg % damage 6 DAA Poa annua” value ([7]; adjuvant 2.5% w/v) was 5%. For the same substance, the “avg % damage 1 DAA Poa annua” value ([7]; adjuvant 5% w/v) was 0%, the “avg % damage 6 DAA Poa annua” value ([7]; adjuvant 5% w/v) was 10% and the “avg % damage 1 DAA Poa annua” value ([7]; adjuvant 10% w/v) was 0%. The “avg % damage 6 DAA Poa annua” value ([7]; adjuvant 10% w/v) was 10%.

From US20130252816A1, “HERBICIDAL COMPOSITION AND USE THEREOF” (Syngenta Crop Protection LLC, priority 2010, published 2013)
